Data from patent publication US9938276B2, “6,5-bicyclic octahydropyrrolopyridine orexin receptor antagonists” (Merck Sharp & Dohme Corp., priority 2014, dated 2018).

Tests used:
[1] = target: human orexin-2 receptor (Homo sapiens (Human), UniProt O43614); assay: hOX2R FLIPR Ca2+ flux assay; type: cell-based; conditions: CHO cells expressing the receptor; agonist 70 pM Ala-6,12 human orexin-A
Method in brief: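 Using CHO lines carrying either rat orexin-1 or human orexin-2 receptor, compounds were tested as antagonists of 70 pM Ala-6,12 orexin-A-evoked calcium rises. Fluo-4 signal was read on a FLIPR over 5 min after a 5 min compound preincubation.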

[2] = target: hOX1R (Homo sapiens, UniProt O43613); assay: hOX1R FLIPR Ca2+ flux assay; type: cell-based; conditions: CHO cells expressing the receptor; agonist 70 pM Ala-6,12 human orexin-A

human orexin-2 receptor, sequence (O43614 whole entry): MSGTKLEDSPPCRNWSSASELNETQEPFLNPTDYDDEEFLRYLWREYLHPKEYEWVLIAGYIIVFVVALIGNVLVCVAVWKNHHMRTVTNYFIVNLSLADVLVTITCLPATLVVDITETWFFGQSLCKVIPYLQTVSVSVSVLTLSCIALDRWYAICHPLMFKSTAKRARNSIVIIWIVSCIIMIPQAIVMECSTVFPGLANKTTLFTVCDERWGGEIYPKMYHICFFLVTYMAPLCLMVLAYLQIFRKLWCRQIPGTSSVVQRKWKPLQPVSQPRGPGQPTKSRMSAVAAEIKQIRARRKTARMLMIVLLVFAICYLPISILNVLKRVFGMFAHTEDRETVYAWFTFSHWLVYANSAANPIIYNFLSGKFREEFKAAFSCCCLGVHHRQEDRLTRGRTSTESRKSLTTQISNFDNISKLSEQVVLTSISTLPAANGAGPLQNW

| SMILES | IC50 [1] [nM] | IC50 [2] [µM] |
| --- | --- | --- |
| N#Cc1ccnc(N2CC[C@@H]3CCN(C(=O)c4ccccc4C4CC4(F)F)C[C@@H]32)c1 (stereo partly drawn) [Example E22, 2-[(3aR, 7aR)-6-{[2-(2,2-difluorocyclopropyl)phenyl]carbonyl}octa-hydro-1H-pyrrolo[2,3-c]pyridin-1-yl]pyridine-4-carbonitrile] | 43.8 | 10 |
| N#Cc1ccnc(N2CC[C@@H]3CCN(C(=O)c4ccccc4-c4ncccn4)C[C@@H]32)c1 [Example E23, 2-{(3aR, 7aR)-6-[(2-pyrimidin-2-ylphenyl)carbonyl]octahydro-1H-pyrrolo[2,3-c]pyridin-1-yl}pyridine-4-carbonitrile] | 99.5 | ≥ 10 |
| NC(=O)c1ccnc(N2CC[C@@H]3CCN(C(=O)c4ccccc4-n4nccn4)C[C@@H]32)c1 [Example F1, 2-((3aR,7aR)-6-(2-(2H-1,2,3-triazol-2-yl)benzoyl)octahydro-1H-pyrrolo[2,3-c]pyridin-1-yl)isonicotinamide] | 562 | ≥ 10 |
| N#Cc1ccnc(N2CC[C@@H]3C[C@@H](CO)N(C(=O)c4ccccc4-n4nccn4)C[C@@H]32)c1 [Example G1, 2-((3aR,5S,7aR)-6-(2-(2H-1,2,3-triazol-2-yl)benzoyl)-5-(hydroxymethyl)octahydro-1H-pyrrolo[2,3-c]pyridin-1-yl)isonicotinonitrile] | 8.2 | 2.75 |
| CCOC(=O)[C@@H]1C[C@H]2CCN(c3cc(C#N)ccn3)[C@H]2CN1C(=O)c1ccccc1-n1nccn1 [Example G2, (3aR,5S,7aR)-ethyl 6-(2-(2H-1,2,3-triazol-2-yl)benzoyl)-1-(4-cyanopyridin-2-yl)octahydro-1H-pyrrolo[2,3-c]pyridine-5-carboxylate] | 198 | ≥ 10 |
| N#Cc1ccnc(N2CC[C@@H]3C[C@@H](CO)N(C(=O)c4ccccc4-n4nccn4)C[C@@H]32)c1 [Example G4] | 2080 | 10 |
| C[C@H]1C[C@H]2CCN(c3cc(C#N)ccn3)[C@H]2CN1C(=O)c1ccccc1-n1nccn1 [Example H1, 2-(6-(2-(2H-1,2,3-triazol-2-yl)benzoyl)-5-methloctahydro-1H-pyrrolo[2,3-c]pyridin-1-yl)isonicotinonitrile] | 18.4 | 2.37 |
